From US20210379046A1, “Methods of Treating Diseases Using Kinase Modulators” (Memorial Sloan Kettering Cancer Center, priority 2018, published 2021)

Tests used:
SUDHL-1 cells = experiment: Flow cytometry of cell surface HLA on SUDHL-1 cells; format: cell-based, human; settings: SUDHL-1, 72 hrs, increasing concentrations
Method: (§1) If adherent cells, they were seeded one day before treatment.

Karpas 299 tumors = experiment: Karpas 299 subcutaneous tumors in mice, tumor HLA and PD-L1 by flow cytometry; format: in vivo
Method: Female NSG (NOD.Cg-Prkdc^scidIl2rg^tm1Wj1/SzJ) and NRG (NOD.Cg-Rag1^tm1MomIl2rg^tm1Wj1/SzJ) mice were purchased from the Jackson Laboratory or MSKCC breeding facility at 5-10 weeks old. For RET and ALK experiments, 2.5-6×10^6 tumor cells were subcutaneously injected into the flank of mice and when tumors were palpable, mice were treated daily with drug or vehicles through oral gavage. At day 7, tumors were harvested and flow cytometry was run to determine effect of inhibitors on HLA and PD-L1 on the tumor cells.
The highly immunodeficient NRG (NOD-Rag1null IL2rgnull) mice were subcutaneously injected with 2.5×10^6 luciferase tagged TPC1 cells in their right flank. […] Afterwards, cells were immediately harvested and stained with antibodies against HLA-A*02:01 and HLA-ABC.
All animal experiments were conducted in accordance with and the approval of the MSKCC IACUC (Institutional Animal Care and Use Committee) protocols. Female NSG (NOD. Cg-Prkdc^scidIl2rg^tm1Wj1/SzJ) and NRG (NOD.Cg-Rag1^tm1MomIl2rg^tm1Wj1/SzJ) mice were purchased from the Jackson Laboratory at 5-10 weeks old. For experiments in vivo with RET and ALK, 2.5-6×10^6 tumor cells in PBS were subcutaneously injected into the flank of mice. When tumors were palpable (2-3 mm), mice were treated daily with drugs or vehicles through oral gavage of drugs in 200 ul of water. At day 4 or 7, tumors were harvested and flow cytometry was conducted to determine the effect of inhibitors on HLA and PD-L1 on the tumor cells. […] TPC1 cells were transduced with luciferase and GFP on an SFG vector and this allowed gating of the tumor cells in flow cytometry.

pERK in Karpas 299 cells = experiment: Western blot of pERK in Karpas 299 cells; format: cell-based, human; settings: Karpas 299, 3 hrs
Method: (§2) Cells were seeded in a 60 mm dish or 6 well plates. After the appropriate time point, cells were harvested and lysed and protein was quantified by a Lowry assay (Bio-Rad DC Protein Assay; #5000116). Protein levels were normalized and run on SDS PAGE gels (Bio-Rad). Protein was transferred to a nitrocellulose membrane using semi-dry transfer. Membrane was blocked and incubated with respective antibodies. When needed, secondary antibodies with HRP were incubated for 1 hr.
(§3) Cells were seeded in a 60 mm dish or 6 well plates. After the appropriate time point, cells were harvested, lysed in RIPA buffer (Thermo Instruments) and protein concentration was quantified by a Lowry assay (using the Bio-Rad DC Protein Assay; #5000116 on a Spectramax device from Molecular Devices). Protein loading levels were equalized per lane and separated on SDS gels (Bio-Rad). Protein was transferred to a nitrocellulose membrance using semi-dry transfer (BioRad). Membranes were blocked with Omniblock (American Bio) and incubated with respected antibodies. When needed, secondary antibodies with HRP were incubated for 1 hr.

SUP-M2 cells = experiment: PD-L1 levels in vitro on SUP-M2 cells
Method: 5×10^4 cells were seeded in a 12 well plate and treated with drug for 72 hrs. Adherent cells were seeded one day before treatment. At 72 hrs, cells were harvested, washed with PBS and incubated on ice with appropriate fluorophore conjugated antibodies diluted in FACS buffer for 1 hr. Gating strategy: Cells were then washed and incubated 30 min with a viability dye (propidium iodide at 1 ug/mL) and live cells only were analyzed by on a Guava flow cytometer with FlowJo software.

Karpas 299 cells = experiment: Flow cytometry of cell surface HLA and checkpoint ligands on Karpas 299 cells; format: cell-based, human
Method: as §1

Karpas299 cells = experiment: Luminex cytokine secretion, Karpas299 cells; format: cell-based, human; settings: Karpas299, 100 nm alectinib
Method: Supernatant media were harvested after treatment and analyzed by the Luminex device (Luminex Corporation, Austin, Tex.) for relevant cytokine secretion. […] On the left side of each panel is data after 24 hours. On the right side of each panel is data after 48 hours. […] The data points shown in this figure are in pairs for each condition. The data point pairs for each time point are, from left to right: DMSO, Rux, Alec, IFNg, and IFNg+Rux.

pERK in SUDHL-1 cells = experiment: Western blot of pERK in SUDHL-1 cells; format: cell-based, human; settings: SUDHL-1, 3 hrs
Method: as §2, §3

TPC1 cells [1] = experiment: RNA-seq of TPC1 cells after RET inhibitor treatment; format: cell-based, human; settings: TPC1, 72 hours
Method: Purified polyA mRNA was subsequently fragmented, and first and second strand cDNA synthesis performed using standard Illumina mRNA TruSeq library preparation protocols. Double stranded cDNA was subsequently processed for TruSeq dual-index Illumina library generation. For sequencing, pooled multiplexed libraries were run on a HiSeq 2500 machine on RAPID mode. Approximately 10 million 76 bp single-end reads were retrieved per replicate condition. Resulting RNA-Seq data was analyzed by removing adaptor sequences using Trimmomatic, aligning sequencing data to GRCh37.75(hg19) with STAR, and genome wide transcript counting using HTSeq to generate a RPKM matrix of transcript counts. This RPKM matrix was further log (log 2) transformed and normalized per gene to obtain the Z-score. Differential gene expression was analyzed by looking at fold changes between experimental conditions.

TPC1 cells [2] = experiment: Flow cytometry of cell surface HLA and checkpoint ligands on TPC1 cells; format: cell-based, human; settings: TPC1, 100 nM, 72 hours
Method: as §1

TPC1 cells [3] = experiment: Mass spectrometry of eluted HLA class I presented peptides, TPC1 cells; format: cell-based, human
Method: After 72 hrs, cells were harvested, washed, lysed. The lysate was run through an activated Sepharose-CNBr column coupled to the W6/32 antibody to bind HLA-A,B,C from the cell. The peptides bound by those HLAs and captured on the column were then eluted and mass spectrometry was run on those peptides.
Immunopurification affinity columns were prepared as described previously (Bassani-Sternberg et al., 2015, Mol Cell Proteomics 14(3):658-673). In brief, 40 mg of Cyanogen bromide-activated-Sepharose® 4B (Sigma-Aldrich, Cat #C9142) was activated with 1 mM hydrochloric acid (Sigma-Aldrich, Cat #320331) for 30 min. Subsequently, 0.5 mg of W6/32 antibody (BioXCell, BE0079; RRID: AB 1107730) was coupled to sepharose in presence of binding buffer (150 mM sodium chloride, 50 mM sodium bicarbonate, pH 8.3; sodium chloride: Sigma-Aldrich, Cat #S9888, sodium bicarbonate: Sigma-Aldrich, Cat #56014) for at least 2 hours at room temperature. Sepharose was blocked for 1 h with glycine (Sigma-Aldrich, Cat #410225). Columns were equilibrated with PBS for 10 min. […]. Afterwards, cells were lysed in 1 ml 1% CHAPS (Sigma-Aldrich, Cat #C3023) in PBS, supplemented with 1 tablet of protease inhibitors (cOmplete, Cat #11836145001) for 1 hour at 4° C. This lysate was spun down for 1 hour at 20,000 g at 4° C. Supernatant was run over the affinity column through peristaltic pumps at 1 ml/min overnight at 4° C. Affinity columns were washed with PBS for 15 min, run dry, and HLA complexes subsequently eluted three times with 200 μl 1% trifluoracetic acid (TFA, Sigma/Aldrich, Cat #02031). For separation of HLA ligands from their HLA complexes tC18 columns (Sep-Pak tC18 1 cc VacCartridge, 100 mg Sorbent per Cartridge, 37-55 μm Particle Size, Waters, Cat #WAT036820) were prewashed with 80% acetonitrile (ACN, Sigma-Aldrich, Cat #34998) in 0.1% TFA and equilibrated with two washes of 0.1% TFA. Samples were loaded, washed again with 0.1% TFA and eluted in 400 μl 30% ACN in 0.1% TFA. Sample volume was reduced by vacuum centrifugation for mass spectrometry analysis.
Samples were analyzed by a high resolution/high accuracy LC-MS/MS (Lumos Fusion, Thermo Fisher). Peptides were desalted using ZipTips (Sigma Millipore, Cat. #ZTC18S008) according to manufactures instructions and concentrated using vacuum centrifugation prior to being separated using direct loading onto a packedin-emitter C18 column (75 um ID/12 cm, 3 μm particles, Nikkyo Technos Co., Ltd. Japan). The gradient was delivered at 300 nl/min increasing linear from 2% Buffer B (0.1% formic acid in 80% acetonitrile)/98% Buffer A (0.1% formic acid) to 30% Buffer B/70% Buffer A, over 70 minutes. MS and MS/MS were operated at resolutions of 60,000 and 30,000, respectively. Only charge states 1, 2 and 3 were allowed. 1.6 Th was chosen as the isolation window and the collision energy was set at 30%. For MS/MS, the maximum injection time was 100 ms with an AGC of 50,000.
Mass spectrometry data was processed using Byonic software (version 2.7.84, Protein Metrics, PaloAlto, Calif.) through a custom-built computer server equipped with 4 Intel Xeon E5-4620 8-core CPUs operating at 2.2 GHz, and 512 GB physical memory (Exxact Corporation, Freemont, Calif.). Mass accuracy for MS1 was set to 10 ppm and to 20 ppm for MS2, respectively. Digestion specificity was defined as unspecific and only precursors with charges 1, 2, and 3 and up to 2 kDa were allowed. Protein FDR was disabled to allow complete assessment of potential peptide identifications. Oxidization of methionine, N-terminal acetylation, phosphorylation of serine, threonine and tyrosine were set as variable modifications for all samples. All samples were searched against the UniProt Human Reviewed Database (20,349 entries, uniprot.org, downloaded June 2017). […]

[4] = Karpas 299 tumors, daily oral gavage
[5] = TPC1, 10 nM AST487 or 100 nM cabozantinib

`CCc1cc2c(cc1N1CCC(N3CCOCC3)CC1)C(C)(C)c1[nH]c3cc(C#N)ccc3c1C2=O` [alectinib] was tested, and the “cell surface HLA-A,B,C” value (SUDHL-1 cells) was “upregulates cell surface HLA”, the “drop of PD-L1” value (Karpas 299 tumors; Karpas 299 tumors in NSG mice) was “approximately 75%” and the “tumor PD-L1 levels in vivo” value (Karpas 299 tumors; [4]) was “PD-L1 decreased with increasing doses”. The “tumor cell surface HLA-A,B,C in vivo” value (Karpas 299 tumors; [4]) was “increased modestly in a dose-dependent manner”, the pERK levels (pERK in Karpas 299 cells) was “shut down pERK expression” and the “PD-L1 levels in vitro” value (SUP-M2 cells) was “dramatic decreases in PD-L1 were seen in vitro”. For the same compound, the “PD-L1 levels in vitro” value (Karpas 299 cells; Karpas 299) was “dramatic decreases in PD-L1 were seen in vitro”, the “surface HLA-E levels” value (Karpas 299 cells; Karpas 299) was “did not change” and the “cell surface HLA-A,B,C” value (Karpas 299 cells; Karpas 299, 72 hrs, increasing concentrations) was “upregulates cell surface HLA”. For the same compound, the “HLA-A02 (BB7-FITC) surface level” value (Karpas 299 cells; Karpas299, alectinib 100 nM, 72 hours) was “led to upregulation of HLA”, the “IFNα, IFNγ, IL4 secretion” value (Karpas299 cells) was “had no effect on IFNα, IFNγ, IL4” and the “IL6 and TNFα secretion” value (Karpas299 cells) was “reduced IL6 and TNFα secretion”. The pERK levels (pERK in SUDHL-1 cells) was “shut down pERK expression”.

For `COc1cc2nccc(Oc3ccc(NC(=O)C4(C(=O)Nc5ccc(F)cc5)CC4)cc3)c2cc1OC` [cabozantinib], the “genes upregulated at least two-fold” value (TPC1 cells [1]) was 50, the “increase in surface HLA (pan-HLA)” value (TPC1 cells [2]) was about 4 fold and the “increase in surface HLA-A*02” value (TPC1 cells [2]) was 4 fold. For the same compound, the “runs TEIPP peptide was found in (n = 3)” value (TPC1 cells [3]; ALFSFVTAL (SEQ ID NO: 11)) was 0, the “runs TEIPP peptide was found in (n = 3)” value (TPC1 cells [3]; FLGPWPAAS (SEQ ID NO: 12)) was 1 and the “runs TEIPP peptide was found in (n = 3)” value (TPC1 cells [3]; FLSELQYYL (SEQ ID NO: 13)) was 0. For the same compound, the “runs TEIPP peptide was found in (n = 3)” value (TPC1 cells [3]; FLYPFLSHL (SEQ ID NO: 14)) was 0, the “runs TEIPP peptide was found in (n = 3)” value (TPC1 cells [3]; ILEYLTAEV (SEQ ID NO: 15)) was 0 and the “runs TEIPP peptide was found in (n = 3)” value (TPC1 cells [3]; LLALAAGLAV (SEQ ID NO: 16)) was 0. For the same compound, the “runs TEIPP peptide was found in (n = 3)” value (TPC1 cells [3]; LLLDVPTAAV (SEQ ID NO: 17)) was 1, the “runs TEIPP peptide was found in (n = 3)” value (TPC1 cells [3]; LLLSAEPVPA (SEQ ID NO: 18)) was 0 and the “runs TEIPP peptide was found in (n = 3)” value (TPC1 cells [3]; LLWGRQLFA (SEQ ID NO: 19)) was 0. For the same compound, the “runs TEIPP peptide was found in (n = 3)” value (TPC1 cells [3]; LSEKLERI (SEQ ID NO: 20)) was 0, the “runs TEIPP peptide was found in (n = 3)” value (TPC1 cells [3]; LTLLGTLWGA (SEQ ID NO: 21)) was 0 and the “runs TEIPP peptide was found in (n = 3)” value (TPC1 cells [3]; SVLWLGALGL (SEQ ID NO: 22)) was 0. The “runs TEIPP peptide was found in (n = 3)” value (TPC1 cells [3]; TLLGASLPA (SEQ ID NO: 23)) was 0, the “new peptides (only peptides found in all three runs counted)” value (TPC1 cells [3]; [5]) was 492 and the “unique peptides not present in the DMSO group (found in at least one run)” value (TPC1 cells [3]; [5]) was 1642. For the same compound, the unique ligands presented (TPC1 cells [3]; TPC1, 10 nM AST487 or 100 nM cabozantinib, three runs pooled, DMSO 4211) was 4850, the “increase in unique peptides vs DMSO” value (TPC1 cells [3]; TPC1, three runs pooled) was 15% and the “unique HLA ligands detected in all 3 runs” value (TPC1 cells [3]; TPC1, DMSO 195) was 639. The “runs TEIPP peptide was found in (n = 3)” value (TPC1 cells [3]; VIIKPLVWV (SEQ ID NO: 24)) was 0, the “runs TEIPP peptide was found in (n = 3)” value (TPC1 cells [3]; VLAVFIKAV (SEQ ID NO: 25)) was 0 and the “runs TEIPP peptide was found in (n = 3)” value (TPC1 cells [3]; VLLDHLSLA (SEQ ID NO: 26)) was 0.
